Measured values taken from patent US6525059B1, “Substituted pyrazoles as p38 kinase inhibitors” (G. D. Searle & Company, priority 1998, dated 2003).

Experiments:
[1] = target: T1, human GST-p38 kinase alpha (Homo sapiens, UniProt Q16539); experiment: p38 kinase in vitro assay, second format, phosphorylation of EGFRP with 33P-ATP; format: biochemical; conditions: Table 10, 10% DMSO; @ 1.0 hour; read-out: p38α Kinase Assay IC50
T1 construct: The coding region of the human p38a cDNA was obtained by PCR-amplification from RNA isolated from the human monocyte cell line THP.1; made in house; host or cells: E. coli DH10B
Summary of the method: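 Activated human GST-p38α (pre-activated with GST-MKK6, 1 h, 30 °C) phosphorylates EGFR 21-mer peptide (200 μM) with 50 μM ATP plus γ-33P-ATP, pH 7.5, 60 min at room temperature. Unreacted ATP removed by AG 1×8 resin; supernatant scintillation-counted.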

TNF-α [2] = experiment: Rat assay: LPS-challenged rats, serum TNF-α by ELISA; format: in vivo; conditions: Rattus norvegicus, po; for inhibition in vivo at 5 mg/kg: Table 10, dose 5.0 mg/kg, read-out: Rat LPS Assay % Inhibition; for inhibition in vivo at 20 mg/kg: Table 10, dose 20.0 mg/kg
human p38 kinase alpha = target: T2, human p38 kinase alpha (Homo sapiens, UniProt Q16539); experiment: p38 kinase in vitro assay, phosphorylation of biotinylated PHAS-I with gamma 32P-ATP; format: biochemical; conditions: activated human p38 kinase alpha, PHAS-I substrate, 50 μM unlabeled ATP; read-out: p38 kinase IC50
T2 construct: The coding region of the human p38a cDNA was obtained by PCR-amplification from RNA isolated from the human monocyte cell line THP.1; GST (N); made in house; host or cells: E. coli DH10B
Summary of the method: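 Radiometric filter-capture read-out: streptavidin plates trap biotin-PHAS-I labelled by activated (MKK6) human p38α from γ-32P-ATP. Buffer 25 mM HEPES pH 7.5, 10 mM magnesium acetate, 50 μM cold ATP; reactions 1 h or overnight at 30 °C; inhibitors 10-fold dilutions 100 to 0.001 μM, triplicates, 1% DMSO.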

TNF-α [3] = experiment: LPS stimulation of TNF production by U937 cells; format: cell-based, human; conditions: Homo sapiens, U-937, LPS-stimulated U937 cells; read-out: U937 Cell Assay IC50
Summary of the method: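 PMA-differentiated human U937 cells (20 ng/ml PMA, 24 h, then 24-48 h rest) at 2 million cells/ml, 0.1% DMSO final, stimulated with E. coli LPS (100 ng/ml final) for 4 h at 37° C. TNF-α in medium measured by ELISA; IC50 in μM.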

T1 sequence (Q16539 whole entry): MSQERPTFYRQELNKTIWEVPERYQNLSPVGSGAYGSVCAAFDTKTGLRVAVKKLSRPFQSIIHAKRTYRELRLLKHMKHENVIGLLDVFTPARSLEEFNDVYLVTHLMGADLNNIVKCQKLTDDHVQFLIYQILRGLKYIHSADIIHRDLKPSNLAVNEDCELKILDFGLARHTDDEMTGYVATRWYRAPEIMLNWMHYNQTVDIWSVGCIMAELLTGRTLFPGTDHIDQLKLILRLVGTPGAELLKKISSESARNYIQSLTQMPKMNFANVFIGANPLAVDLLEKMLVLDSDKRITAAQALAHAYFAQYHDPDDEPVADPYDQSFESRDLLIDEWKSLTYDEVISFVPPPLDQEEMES
T2 sequence (Q16539 whole entry): as above

SMILES	IC50 [1] [µM]	melting point	further results
CC(C#N)Sc1[nH]nc(-c2ccc(Cl)cc2)c1-c1ccncc1 (stereo not drawn) [Example A-477]	0.34	211.1 to 212.8 °C	
COc1ccc(C(=O)C(=C2SCS2)c2ccncc2)cc1Cl [Example A-397]	30	191.5 to 192.5 °C	
O=C(O)CNc1[nH]nc(-c2ccc(Cl)cc2)c1-c1ccncc1.[Li+] [Example A-430]	> 100	> 300 °C	
CC(C)(C)OC(=O)N1CCC(S(=O)(=O)c2[nH]nc(-c3ccc(Cl)cc3)c2-c2ccncc2)CC1 [Example A-465]	> 100	228 to 230.8 °C	
O=C(C(=C1SCS1)c1ccncc1)c1cccc(Br)c1 [Example A-393]	2.32	159.6 to 159.7 °C	
CN(C)c1ccc(C(=O)C(=C2SCS2)c2ccncc2)cc1 [Example A-402]	28.9	197.3 to 202.2 °C	
C=Cc1ccc(-c2[nH]nc(N3CCN(C)CC3)c2-c2ccncc2)cc1 [Example A-418, 1-[5-(4-ethenylphenyl)-4-(4-pyridinyl)-1H-pyrazol-3-yl]-4-methylpiperazine]	0.12	> 300 °C	
COC(=O)CNc1[nH]nc(-c2ccc(Cl)cc2)c1-c1ccncc1 [Example A-429]	56.3	195.4 to 196.8 °C	
Sc1[nH]nc(-c2ccc(Cl)cc2)c1-c1ccncc1 [Example A-453]	10.2	266.3 to 268.9 °C	
Cc1ccc(C(=O)C(=C2SCS2)c2ccncc2)cc1C [Example A-394]	9.11	198.8 to 198.9 °C	
Cc1ccc(-c2n[nH]c(N3CCN(C)CC3)c2-c2ccncc2)cc1C [Example A-410, 1-[5-(3,4-dimethylphenyl)-4-(4-pyridinyl)-1H-pyrazol-3-yl]-4-methylpiperazine]	0.21	270.9 to 272.7 °C	inhibition in vivo at 5 mg/kg (TNF-α [2]): 11%; inhibition in vivo at 20 mg/kg (TNF-α [2]): 0%
COc1ccc(C(=O)C(=C2SCS2)c2ccncc2)cc1 [Example A-399]	22.9	203 to 204.1 °C	
Cc1cc(-c2[nH]nc(N3CCN(C)CC3)c2-c2ccncc2)ccc1Br [Example A-420, 1-[5-(4-bromo-3-methylphenyl)-4-(4-pyrdinyl)-1H-pyrazol-3-yl]-4-methylpiperazine]	0.32	294.7 °C (dec.)	inhibition in vivo at 5 mg/kg (TNF-α [2]): 47%; inhibition in vivo at 20 mg/kg (TNF-α [2]): 91%
Cc1cccc(-c2n[nH]c(N3CCN(C)CC3)c2-c2ccncc2)c1 [A-389, Step 4]	0.16	261.9 to 262 °C	inhibition in vivo at 5 mg/kg (TNF-α [2]): 55%; inhibition in vivo at 20 mg/kg (TNF-α [2]): 94%
Cc1ccccc1C(=O)C(=C1SCS1)c1ccncc1 [Example A-392]	29.7	126.5 to 126.6 °C	
CC(C)(C)OC(=O)N1CCC([S+]([O-])c2[nH]nc(-c3ccc(Cl)cc3)c2-c2ccncc2)CC1 (stereo not drawn) [Example A-464]	> 100	215.8 to 215.9 °C	
COc1ccc(COc2[nH]nc(-c3ccc(Cl)cc3)c2-c2ccncc2)cc1 [Example A-444]	6.99	229.1 to 229.2 °C	
COc1ccc(C[S+]([O-])c2[nH]nc(-c3ccc(F)cc3)c2-c2ccncc2)cc1 (stereo not drawn) [Example A-466]	20.1	189.5 °C	
CNC(=O)c1cc(-c2cn[nH]c2-c2ccc(F)cc2)ccn1 [Example A-225, 4-[3-(4-fluorophenyl)-1H-pyrazol-4-yl]-N-methyl-2-pyridinecarboxamide]		88 to 89 °C	
Fc1ccc(-c2n[nH]cc2-c2ccnc(NCc3ccccc3)n2)cc1 [Example A-303, 4-[3-(4-fluorophenyl)-1H-pyrazol-4-yl]-N-(phenylmethyl)-2-pyrimidinamine]		216 to 217 °C	
CN1CCN(c2n[nH]c(-c3cccs3)c2-c2ccncc2)CC1 [Example A-426]		199.7 °C (dec.)	
Fc1ccc(-c2[nH]nc(C(F)(F)F)c2-c2ccncc2)cc1 [Example A-190]		281.94 °C	

SMILES	IC50 [1] [µM]	melting point	further results
Fc1ccc(-c2n[nH]c(-c3ccncc3)c2-c2ccncc2)cc1 [Example A-23, 4-[3-(4-fluorophenyl)-4-(4-pyridinyl)-1H-pyrazol-5-yl]pyridine]		304 °C	IC50 (human p38 kinase alpha): 1.5 µM
COc1ccc(CNc2nccc(-c3cn[nH]c3-c3ccc(F)cc3)n2)cc1 [Example A-305, 4-[3-(4-fluorophenyl)-1H-pyrazol-4-yl]-N-[(4-methoxyphenyl)methyl)-2-pyrimidinamine]		183 to 185 °C	
COc1ccc(CSC(SCc2ccc(OC)cc2)=C(C(=O)c2ccc(F)cc2)c2ccncc2)cc1 [Example A-450]	> 100	118.5 to 120.6 °C	
CSc1ccc(-c2[nH]nc(N3CCN(C)CC3)c2-c2ccncc2)cc1 [Example A-423, 1-[5-(4-thiomethoxyphenyl)-4-(4-pyridinyl)-1H-pyrazol-3-yl]-4-methylpiperazine]		275.6 to 281.9 °C	
Clc1ccc(-c2n[nH]c(SCc3nc4ccccc4[nH]3)c2-c2ccncc2)cc1 [Example A-470]	10.4	257.7 °C	
CN1CCN(c2[nH]nc(C3CCCCC3)c2-c2ccncc2)CC1 [Example A-485, 1-[cyclohexyl-4-(4-pyridinyl)-1H-pyrazol-3-yl]-4-methylpiperazine]		> 300 °C (dec.)	
CSc1[nH]nc(-c2ccc(F)cc2)c1-c1ccncc1 [Example A-434]	5.84	249.9 °C	
CN1CCN(c2[nH]nc(-c3ccc(F)cc3)c2-c2ccncc2)CC1 (hydrate or solvate) [Example A-317, 1-[5-(4-fluorophenyl)-4-(4-pyridinyl)-1H-pyrazol-3-yl]-4-methylpiperazine, dihydrate]		262 to 264 °C	
O=C(O)C1CC1c1c(-c2ccncc2)c(-c2ccc(F)cc2)nn1CCO (stereo not drawn) [Example A-197, 2-[3-(4-fluorophenyl)-1-(2-hydroxyethyl)-4-(4-pyridinyl)-1H-pyrazol-5-yl]cyclopropanecarboxylic acid]		253 to 255 °C	
COc1ccc(CS(=O)(=O)c2[nH]nc(-c3ccc(F)cc3)c2-c2ccncc2)cc1 [Example A-467]	21.4	241.9 to 242 °C	
Fc1ccc(-c2[nH]nc(-c3ccccc3)c2-c2ccncc2)cc1 [Example A-21, 4-[5-(4-fluorophenyl)-3-phenyl-1H-pyrazol-4-yl]pyridine]		265 to 267 °C	IC50 (TNF-α [3]): 0.077 µM
Cc1n[nH]c(-c2c(F)cccc2F)c1-c1ccncc1 [Example A-184, 4-[3-(2,6-difluorophenyl)-5-methyl-1H-pyrazol-4-yl]pyridine]		236.67 °C	
CCn1nc(-c2ccc(Cl)cc2)c(-c2ccncc2)c1C [Example A-206, 4-[3-(4-chlorophenyl)-1-ethyl-5-methyl-1H-pyrazol-4-yl]pyridine]		164.36 °C	
Fc1ccc(-c2[nH]nc(Nc3ccccc3)c2-c2ccncc2)cc1 [Example A-20, 5-(4-Fluorophenyl)-N-phenyl-4-(4-pyridinyl)-1H-pyrazol-3-amine]		218 to 219 °C	IC50 (TNF-α [3]): 1.09 µM
Clc1ccc(-c2n[nH]c(OCCN3CCOCC3)c2-c2ccncc2)cc1 [Example A-440]		198.9 to 199.9 °C	
CNc1nccc(-c2c[nH]nc2-c2ccc(F)cc2)n1 [Example A-302, 4-[3-(4-fluorophenyl)-1H-pyrazol-4-yl]-N-methyl-2-pyrimidinamine]		217 to 218 °C	
NNc1nccc(-c2cn[nH]c2-c2ccc(F)cc2)n1 [Example A-300, 4-[3-(4-fluorophenyl)-1H-pyrazol-4-yl]-2(1H)-pyrimidinone hydrazone]		149 to 150 °C	
Fc1ccc(-c2n[nH]c(S)c2-c2ccncc2)cc1 [Example A-454]	8.41	261.3 to 263.9 °C	
CN1CCN(c2n[nH]c(-c3ccc(F)cc3)c2-c2ccncc2)CC1.O.O (hydrate or solvate)		238 to 240 °C	
CN1CCN(c2n[nH]c(-c3cccc(C(F)(F)F)c3)c2-c2ccncc2)CC1 [Example A-424]		212.6 to 213.7 °C	
NNc1cc(-c2c[nH]nc2-c2cccc(Cl)c2)ccn1 [Example A-219, 4-[3-(3-chlorophenyl)-1H-pyrazol-4-yl]-2(1H)-pyridinone hydrazone]		163 to 164 °C	
